US20260297121A1, “MITHRAMYCIN (MTM) 2’ OXIMES” (University of Kentucky Research Foundation, priority 2023, published 2026)
Like-named read-outs stand apart in the source and are kept apart here.

How the values were obtained:
ES8 = experiment: Cytotoxicity, resazurin fluorescence, ES8; assay type: cell-based; details: Homo sapiens, ES8; Table 6; 72 hr; EWS cells
EWS cells = experiment: Cytotoxicity, average over Ewing (EWS) cell panel; assay type: cell-based; details: Table 6; 72 hr; average of EWS cells
Protocol: (§1) Exemplary compounds of the presently-disclosed subject matter were assessed for cytotoxicity (Table 5) in Ewing sarcoma (TC32) and non-Ewing (PC3 prostate cancer). […] Cells (1000-5000/well) were seeded in 96-well plates and allowed to attach and grow for 24 hr prior to adding compounds in half-log increments from 0.3 nM-10 μM. Cell viability was assessed after 72 hr continuous incubation with compounds using resazurin fluorescence. GI50 values were estimated using GraphPad Prism.

[1] = Clearance (CL) / pharmacokinetics; assay type: in vivo, mice; details: mouse, plasma, iv; Table 2
How it was run: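 Mice, three per group, received a bolus IV dose, given singly or in cassette format. Blood was taken by saphenous bleed, and plasma analytes were quantified by LC/MS/MS to derive clearance in mL hr^−1 kg^−1.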

Hela = experiment: Cytotoxicity, resazurin fluorescence, Hela; assay type: cell-based; details: Homo sapiens, HeLa, read-out: GI50 Hela
TC71 = experiment: Cytotoxicity, resazurin fluorescence, TC71; assay type: cell-based; details: Homo sapiens, TC-71; Table 6; 72 hr; EWS cells
ES3 = experiment: Cytotoxicity, resazurin fluorescence, ES3; assay type: cell-based; details: Table 6; 72 hr; EWS cells
TC32 cells = experiment: Potency IC50 in TC32 cells and selectivity; assay type: cell-based; details: Homo sapiens, TC-32, Table 2, read-out: IC50 TC32
DU145 = experiment: Cytotoxicity, resazurin fluorescence, DU145; assay type: cell-based; details: Homo sapiens, read-out: GI50 DU145
RDES = experiment: Cytotoxicity, resazurin fluorescence, RDES; assay type: cell-based; details: RD-ES; Table 6; 72 hr; EWS cells
5838 = experiment: Cytotoxicity, resazurin fluorescence, 5838; assay type: cell-based; details: Table 6; 72 hr; express EWS-ERG
A549 = experiment: Cytotoxicity, resazurin fluorescence, A549; assay type: cell-based; details: Homo sapiens, read-out: GI50 A549
SK.ES1 = experiment: Cytotoxicity, resazurin fluorescence, SK.ES1; assay type: cell-based; details: Homo sapiens, SK-ES1; Table 6; 72 hr; EWS cells
ES4 = experiment: Cytotoxicity, resazurin fluorescence, ES4; assay type: cell-based; details: Table 6; 72 hr; EWS cells
LNCap = experiment: Cytotoxicity, resazurin fluorescence, LNCap; assay type: cell-based; details: Homo sapiens, LNCaP, read-out: GI50 LNCap
log P = assay type: physicochemical; details: Table 2
PC3 [2] = experiment: IC50 in PC3 cells; assay type: cell-based; details: Homo sapiens, PC-3, read-out: IC50 PC2, Table 2; head prints PC2, text PC3
A673 = experiment: Cytotoxicity, resazurin fluorescence, A673; assay type: cell-based; details: Homo sapiens, A673; Table 6; 72 hr; EWS cells
TC32 = experiment: Cytotoxicity, resazurin fluorescence, TC32; assay type: cell-based; details: Homo sapiens, TC-32, 72 h
Protocol: as §1

HepG2 = experiment: Cytotoxicity, resazurin fluorescence, HepG2; assay type: cell-based; details: Homo sapiens, read-out: GI50 HepG2
BL1395 = experiment: Cytotoxicity, resazurin fluorescence, BL1395; assay type: cell-based; details: read-out: GI50 BL1395
PC3 [3] = experiment: Cytotoxicity, resazurin fluorescence, PC3; assay type: cell-based; details: Homo sapiens, PC-3, 72 h
How it was run: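 First, 1000-5000 cells per well grow for 24 hr. Next, compounds are added at half-log concentrations across 0.3 nM-10 μM and kept on for 72 hr. Finally, viability is read with resazurin fluorescence to estimate GI50.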

H460 = experiment: Cytotoxicity, resazurin fluorescence, H460; assay type: cell-based; details: Homo sapiens, read-out: GI50 H460
ES7 = experiment: Cytotoxicity, resazurin fluorescence, ES7; assay type: cell-based; details: Homo sapiens, ES7; Table 6; 72 hr; EWS cells
Non EWS cells = experiment: Cytotoxicity, average over non-Ewing cell panel; assay type: cell-based; details: read-out: GI50 Average, Non EWS cells
Protocol: as §1

PANC1 = experiment: Cytotoxicity, resazurin fluorescence, PANC1; assay type: cell-based; details: Homo sapiens, read-out: GI50 PANC1
[4] = read-out: GI50 TC32, Table 6, EWS cells
[5] = DU-145, Table 6, 72 hr, non EWS cells
[6] = A549, Table 6, 72 hr, non EWS cells
[7] = HepG2, Table 6, 72 hr, hepatic origin
[8] = Table 6, 72 hr, lymphocyte origin
[9] = Table 6, non EWS cells, read-out: GI50 PC3
[10] = NCI-H460, Table 6, 72 hr, non EWS cells
[11] = Table 6, 72 hr, average of non EWS cells
[12] = PANC-1, Table 6, 72 hr, non EWS cells

Structure (SMILES) | GI50 (ES8) [µM] | GI50 (EWS cells) [µM] | clearance [1] [mL/min/kg] | GI50 (TC71) [µM] | GI50 (ES3) [µM] | IC50 (TC32 cells) [µM] | GI50 (RDES) [µM] | GI50 5838 [µM] | GI50 (SK.ES1) [µM] | GI50 (ES4) [µM] | logP (log P) | IC50 (PC3 [2]) [µM] | GI50 (A673) [µM] | GI50 (TC32; read-out: GI50 TC32, Table 5) [µM] | GI50 (TC32; [4]) [µM] | GI50 (PC3 [3]; read-out: GI50 PC3, Table 5) [µM] | GI50 (ES7) [µM] | GI50 (Hela; Table 6, 72 hr, non EWS cells) [µM] | GI50 (DU145; [5]) [µM] | GI50 (A549; [6]) [µM] | also measured
CO[C@H](C(=NOCCNC(=O)c1cc2cc(F)ccc2[nH]1)[C@@H](O)[C@@H](C)O)[C@@H]1Cc2cc3cc(O[C@H]4C[C@@H](O[C@H]5C[C@@H](O)[C@H](O)[C@@H](C)O5)[C@H](O)[C@@H](C)O4)c(C)c(O)c3c(O)c2C(=O)[C@H]1O[C@H]1C[C@@H](O[C@H]2C[C@@H](O[C@H]3C[C@](C)(O)[C@H](O)[C@@H](C)O3)[C@@H](O)[C@@H](C)O2)[C@H](O)[C@@H](C)O1 [YL-B168] | 0.0688 | 0.0669 | 0.717 | 0.258 | 0.0567 | 0.00215 | 0.0329 | 0.0402 | 0.0392 | 0.0309 | 1.62 | 0.0195 | 0.0345 | 0.03 | 0.0303 | 0.065 | 0.0769 | – | – | – | GI50 (Hela; 72 h): 0.47 µM; GI50 (DU145; DU-145, 72 h): 0.0905 µM; GI50 (A549; A549, 72 h): 0.357 µM; GI50 (LNCap; 72 h): 0.275 µM; GI50 (HepG2; HepG2, 72 h): > 1 µM; GI50 (BL1395; Lymphocyte, 72 h): 0.0499 µM; GI50 (PC3 [3]; read-out: GI50 PC3, Table 6, non EWS cells): 0.0652 µM; GI50 (H460; NCI-H460, 72 h): 0.116 µM; GI50 (Non EWS cells; 72 h): 0.191 µM; GI50 (PANC1; PANC-1, 72 h): 0.105 µM
CO[C@H](C(=NOCCNC(=O)c1cc2cc(OC(F)(F)F)ccc2[nH]1)[C@@H](O)[C@@H](C)O)[C@@H]1Cc2cc3cc(O[C@H]4C[C@@H](O[C@H]5C[C@@H](O)[C@H](O)[C@@H](C)O5)[C@H](O)[C@@H](C)O4)c(C)c(O)c3c(O)c2C(=O)[C@H]1O[C@H]1C[C@@H](O[C@H]2C[C@@H](O[C@H]3C[C@](C)(O)[C@H](O)[C@@H](C)O3)[C@@H](O)[C@@H](C)O2)[C@H](O)[C@@H](C)O1 [YL-B171] | 0.0367 | 0.0317 | – | 0.0195 | 0.0315 | 0.00462 | 0.0327 | 0.0371 | 0.0354 | 0.0204 | 2.93 | 0.0107 | 0.051 | 0.026 | 0.0256 | 0.049 | 0.0267 | 0.105 | 0.0325 | 0.114 | GI50 (LNCap; Table 6, 72 hr, non EWS cells): 0.117 µM; GI50 (HepG2; [7]): 0.202 µM; GI50 (BL1395; [8]): 0.0515 µM; GI50 (PC3 [3]; [9]): 0.0493 µM; GI50 (H460; [10]): 0.0695 µM; GI50 (Non EWS cells; [11]): 0.0976 µM; GI50 (PANC1; [12]): 0.138 µM
COC(C(=NOCCNC(=O)c1cc2cc(Br)ccc2[nH]1)C(O)C(C)O)C1Cc2cc3cc(OC4CC(OC5CC(O)C(O)C(C)O5)C(O)C(C)O4)c(C)c(O)c3c(O)c2C(=O)C1OC1CC(OC2CC(OC3CC(C)(O)C(O)C(C)O3)C(O)C(C)O2)C(O)C(C)O1 (centres unmarked) [YL-B169] | 0.0687 | 0.0438 | 0.467 | 0.152 | 0.0384 | 0.00116 | 0.0291 | 0.0302 | 0.0244 | 0.0251 | 2.37 | 0.0206 | 0.026 | 0.018 | 0.0184 | 0.034 | 0.0256 | 0.176 | 0.0499 | 0.558 | GI50 (LNCap; Table 6, 72 hr, non EWS cells): 0.239 µM; GI50 (HepG2; [7]): 0.306 µM; GI50 (BL1395; [8]): 0.0313 µM; GI50 (PC3 [3]; [9]): 0.034 µM; GI50 (H460; [10]): 0.0787 µM; GI50 (Non EWS cells; [11]): 0.171 µM; GI50 (PANC1; [12]): 0.0621 µM
